Laboratory results published in ChEMBL document CHEMBL1147240, “Lactones from the leaves of Litsea japonica and their anti-complement activity” (J Nat Prod, 2003).

Assay: Inhibition of human serum complement system-mediated hemolysis

## O=C(/C=C/c1ccc(O)c(O)c1)O[C@H](Cc1ccc(O)c(O)c1)C(=O)O [ROSMARINIC ACID]
  IC50: 180 µM

## C=CCCCCCCCC/C=C/C1=C[C@H](C)OC1=O [HAMABIWALACTONE B]
  IC50: 149 µM

## C#CCCCCCCCC/C=C/C1=C[C@H](C)OC1=O [HAMABIWALACTONE A]
  IC50: 714 µM

## CC/C=C/CCCCCCCC/C=C/C1=CC(C)OC1=O (single isomer, unassigned) [LITSEALACTONE A]
  IC50: 787 µM

## C=C/C=C/CCCCCCCC/C=C/C1=C[C@H](C)OC1=O [AKOLACTONE B]
  IC50: 58 µM
